The record followed here is publication PMC7375528, “Piperidine scaffold as the novel P2-ligands in cyclopropyl-containing HIV-1 protease inhibitors: Structure-based design, synthesis, biological evaluation and docking study” (PLoS ONE, 2020).

Each structure is given as a SMILES string.

Data set [1] has as its target T1, wild-type HIV-1 PR (Human immunodeficiency virus type 1 group M subtype B, UniProt P04585).
T1 construct: HIV-1 protease was cloned and heterologously expressed in Escherichia coli and purified; made in house; host or cells: Escherichia coli
The data set can be described thus: In vitro HIV-1 PR activity assay (FRET). The data set is classed as biochemical. The procedure:
(§1) The inhibitory effect of all new designed inhibitors were measured using fluorescence resonance energy transfer (FRET) method. […] The energy transfer donor (EDANS) and acceptor (DABCYL) dyes are labeled at two ends of the peptide to perform FRET. Excitation and emission wavelengths were set at 340 nm and 490 nm. Inhibitors were dissolved in dimethylsulfoxide (DMSO) and diluted to appropriate concentrations. HIV-1 protease was cloned and heterologously expressed in Escherichia coli and purified. The experiment was carried out in 96-well plates. The FRET assay reaction buffer contained 0.1 M sodium acetate, 1 M sodium chloride, 1 mM ethylenediaminetetraacetic acid (EDTA), 1 mM dithiothreitol (DTT), 2% DMSO and 1 mg/mL bovine serum albumin (BSA) with an adjusted pH 4.7. Protease and inhibitor were mixed and incubated for 20–30 mins at room temperature and then the substrate was added. Each reaction was recorded for about 10 mins. From plots of concentration versus the calculated percent inhibition, IC50 values were determined.
as §1, with “20-30” for “20–30”, “mins.” for “mins. From plots of concentration versus the calculated percent inhibition, IC50 values were determined.”

Data set [2] is described as follows: Cytotoxicity assay (cell counting kit-8). It counts as cell-based. The following applies: human; 293T cells, CCK-8, 24h exposure. The procedure:
Selected inhibitors were further evaluated in cytotoxicity assay using a cell counting kit-8 assay. […] After 24h of culture, 1μL of drugs were added to each well. After another 24h of culture, 10 μL of CCK-8 was added to each well. Absorbance was quantified at wavelength 450 nm using an EnVision multilabel reader (PerkinElmer) after 2h at room temperature.
In general terms: Tetrazolium assays rely on reduction of a dye to a coloured formazan, in cell work by metabolically active cells.

`O=C(N[C@@H](Cc1ccccc1)[C@H](O)CN(C1CC1)S(=O)(=O)c1ccc(C(F)(F)F)cc1)[C@@H]1CCCNC1` [22b, (R)-N-((2S,3R)-4-((N-cyclopropyl-4-(trifluoromethyl)phenyl)sulfonamido)-3-hydroxy-1-phenylbutan-2-yl)piperidine-3-carboxamide] yielded a melting point of 204.8 to 206.3 °C. In data set [1], this molecule yielded a half-inhibitory concentration (IC50) of 8.35 ± 5.58 nM. In data set [2], this molecule yielded a CC50 at 24 h of more than 100000 nM.
The corresponding values for `O=C(N[C@@H](Cc1ccccc1)[C@H](O)CN(C1CC1)S(=O)(=O)c1ccc([N+](=O)[O-])cc1)[C@@H]1CCCNC1` [22c, (R)-N-((2S,3R)-4-((N-cyclopropyl-4-nitrophenyl)sulfonamido)-3-hydroxy-1-phenylbutan-2-yl)piperidine-3-carboxamide] are 196.8 to 198.4 °C, 17 ± 8.12 nM and more than 100000 nM.
Consider `Nc1ccc(S(=O)(=O)N(C[C@@H](O)[C@H](Cc2ccccc2)NC(=O)[C@@H]2CCCNC2)C2CC2)cc1` [22d, (R)-N-((2S,3R)-4-((4-amino-N-cyclopropylphenyl)sulfonamido)-3-hydroxy-1-phenylbutan-2-yl)piperidine-3-carboxamide], for which the melting point is 216.5 to 218.3 °C. The 50% inhibitory concentration (IC50) in data set [1] turned out to be 10.1 ± 6.71 nM. The molecule further displayed a CC50 at 24 h in data set [2] of more than 100000 nM.
The molecule `COc1ccc(S(=O)(=O)N(C[C@@H](O)[C@H](Cc2ccccc2)NC(=O)[C@H]2CCCNC2)C2CC2)cc1` [23a, (S)-N-((2S,3R)-4-((N-cyclopropyl-4-methoxyphenyl)sulfonamido)-3-hydroxy-1-phenylbutan-2-yl)piperidine-3-carboxamide] gave a melting point of 92.9 to 94.7 °C. The same molecule displayed an IC50 in data set [1] of 433 ± 97.5 nM.
On to `O=C(N[C@@H](Cc1ccccc1)[C@H](O)CN(C1CC1)S(=O)(=O)c1ccc(C(F)(F)F)cc1)[C@H]1CCCNC1` [23b, (S)-N-((2S,3R)-4-((N-cyclopropyl-4-(trifluoromethyl)phenyl)sulfonamido)-3-hydroxy-1-phenylbutan-2-yl)piperidine-3-carboxamide], for which the melting point lay in the range of 236.5 to 238.4 °C. Also, half-maximal inhibition in data set [1] (IC50) was put at 264 ± 69.1 nM.
The corresponding values for `O=C(N[C@@H](Cc1ccccc1)[C@H](O)CN(C1CC1)S(=O)(=O)c1ccc([N+](=O)[O-])cc1)[C@H]1CCCNC1` [23c, (S)-N-((2S,3R)-4-((N-cyclopropyl-4-nitrophenyl)sulfonamido)-3-hydroxy-1-phenylbutan-2-yl)piperidine-3-carboxamide] are 155.9 to 157.2 °C and 483 ± 103 nM.
As to `Nc1ccc(S(=O)(=O)N(C[C@@H](O)[C@H](Cc2ccccc2)NC(=O)[C@H]2CCCNC2)C2CC2)cc1` [23d, (S)-N-((2S,3R)-4-((4-amino-N-cyclopropylphenyl)sulfonamido)-3-hydroxy-1-phenylbutan-2-yl)piperidine-3-carboxamide], the melting point lay within 77.8 to 79.4 °C. In data set [1], this molecule had an IC50 of 313 ± 58.1 nM.
On the same counts, the results for `CN1CCC[C@@H](C(=O)N[C@@H](Cc2ccccc2)[C@H](O)CN(C2CC2)S(=O)(=O)c2ccc([N+](=O)[O-])cc2)C1` [24c, (R)-N-((2S,3R)-4-((N-cyclopropyl-4-nitrophenyl)sulfonamido)-3-hydroxy-1-phenylbutan-2-yl)-1-methylpiperidine-3-carboxamide] are 159.9 to 161.2 °C and 39.5 ± 11.9 nM.
For `CN1CCC[C@@H](C(=O)N[C@@H](Cc2ccccc2)[C@H](O)CN(C2CC2)S(=O)(=O)c2ccc(N)cc2)C1` [24d, (R)-N-((2S,3R)-4-((4-amino-N-cyclopropylphenyl)sulfonamido)-3-hydroxy-1-phenylbutan-2-yl)-1-methylpiperidine-3-carboxamide], the melting point was in the range of 75.8 to 77.3 °C. The same molecule yielded an IC50 in data set [1] of 16.3 ± 9.54 nM. Moreover, in data set [2], the CC50 at 24 h is more than 100000 nM.
In turn, `COc1ccc(S(=O)(=O)N(C[C@@H](O)[C@H](Cc2ccccc2)NC(=O)[C@H]2CCCN(C)C2)C2CC2)cc1` [25a, (S)-N-((2S,3R)-4-((N-cyclopropyl-4-methoxyphenyl)sulfonamido)-3-hydroxy-1-phenylbutan-2-yl)-1-methylpiperidine-3-carboxamide] had a melting point of 88.9 to 91.2 °C. Moreover, the IC50 in data set [1] came to 283 ± 36.4 nM.
The corresponding values for `CN1CCC[C@H](C(=O)N[C@@H](Cc2ccccc2)[C@H](O)CN(C2CC2)S(=O)(=O)c2ccc(C(F)(F)F)cc2)C1` [25b, (S)-N-((2S,3R)-4-((N-cyclopropyl-4-(trifluoromethyl)phenyl)sulfonamido)-3-hydroxy-1-phenylbutan-2-yl)-1-methylpiperidine-3-carboxamide] are 102.7 to 104.6 °C and 110 ± 27.2 nM.
Consider `CN1CCC[C@H](C(=O)N[C@@H](Cc2ccccc2)[C@H](O)CN(C2CC2)S(=O)(=O)c2ccc([N+](=O)[O-])cc2)C1` [25c, (S)-N-((2S,3R)-4-((N-cyclopropyl-4-nitrophenyl)sulfonamido)-3-hydroxy-1-phenylbutan-2-yl)-1-methylpiperidine-3-carboxamide], for which the melting point lay in the range of 133.2 to 134.8 °C. The same molecule displayed an IC50 in data set [1] of 523 ± 104 nM.
On the same counts, the results for `CN1CCC[C@H](C(=O)N[C@@H](Cc2ccccc2)[C@H](O)CN(C2CC2)S(=O)(=O)c2ccc(N)cc2)C1` [25d, (S)-N-((2S,3R)-4-((4-amino-N-cyclopropylphenyl)sulfonamido)-3-hydroxy-1-phenylbutan-2-yl)-1-methylpiperidine-3-carboxamide] are 76.8 to 78.5 °C and 236 ± 36.5 nM.
On the same counts, the results for `COc1ccc(S(=O)(=O)N(C[C@@H](O)[C@H](Cc2ccccc2)NC(=O)C2CCNCC2)C2CC2)cc1` [26a, N-((2S,3R)-4-((N-cyclopropyl-4-methoxyphenyl)sulfonamido)-3-hydroxy-1-phenylbutan-2-yl)piperidine-4-carboxamide] are 219.9 to 221.3 °C and 155 ± 15.1 nM.
The corresponding values for `O=C(N[C@@H](Cc1ccccc1)[C@H](O)CN(C1CC1)S(=O)(=O)c1ccc(C(F)(F)F)cc1)C1CCNCC1` [26b, N-((2S,3R)-4-((N-cyclopropyl-4-(trifluoromethyl)phenyl)sulfonamido)-3-hydroxy-1-phenylbutan-2-yl)piperidine-4-carboxamide] are 243.3 to 245.1 °C and 124 ± 27.6 nM.
`O=C(N[C@@H](Cc1ccccc1)[C@H](O)CN(C1CC1)S(=O)(=O)c1ccc([N+](=O)[O-])cc1)C1CCNCC1` [26c, N-((2S,3R)-4-((N-cyclopropyl-4-nitrophenyl)sulfonamido)-3-hydroxy-1-phenylbutan-2-yl)piperidine-4-carboxamide] gave a melting point of 186.2 to 187.7 °C. 268 ± 37.8 nM corresponded to half-maximal inhibition in data set [1] (IC50).
The corresponding values for `Nc1ccc(S(=O)(=O)N(C[C@@H](O)[C@H](Cc2ccccc2)NC(=O)C2CCNCC2)C2CC2)cc1` [26d, N-((2S,3R)-4-((4-amino-N-cyclopropylphenyl)sulfonamido)-3-hydroxy-1-phenylbutan-2-yl)piperidine-4-carboxamide] are 204.7 to 206.5 °C and 245 ± 39.8 nM.
On the same counts, the results for `COc1ccc(S(=O)(=O)N(C[C@@H](O)[C@H](Cc2ccccc2)NC(=O)CN2CCCCC2)C2CC2)cc1` [27a, N-((2S,3R)-4-((N-cyclopropyl-4-methoxyphenyl)sulfonamido)-3-hydroxy-1-phenylbutan-2-yl)-2-(piperidin-1-yl)acetamide] are 63.6 to 65.8 °C and 228 ± 45 nM.
On the same counts, the results for `O=C(CN1CCCCC1)N[C@@H](Cc1ccccc1)[C@H](O)CN(C1CC1)S(=O)(=O)c1ccc(C(F)(F)F)cc1` [27b, N-((2S,3R)-4-((N-cyclopropyl-4-(trifluoromethyl)phenyl)sulfonamido)-3-hydroxy-1-phenylbutan-2-yl)-2-(piperidin-1-yl)acetamide] are 72.3 to 75.2 °C and 52.7 ± 14.7 nM.
In turn, `O=C(CN1CCCCC1)N[C@@H](Cc1ccccc1)[C@H](O)CN(C1CC1)S(=O)(=O)c1ccc([N+](=O)[O-])cc1` [27c, N-((2S,3R)-4-((N-cyclopropyl-4-nitrophenyl)sulfonamido)-3-hydroxy-1-phenylbutan-2-yl)-2-(piperidin-1-yl)acetamide] registered a melting point of 82.9 to 84.1 °C. In addition, the 50% inhibitory concentration (IC50) in data set [1] worked out at 288 ± 62 nM.
`Nc1ccc(S(=O)(=O)N(C[C@@H](O)[C@H](Cc2ccccc2)NC(=O)CN2CCCCC2)C2CC2)cc1` [27d, N-((2S,3R)-4-((4-amino-N-cyclopropylphenyl)sulfonamido)-3-hydroxy-1-phenylbutan-2-yl)-2-(piperidin-1-yl)acetamide] had a melting point of 144.4 to 146.2 °C. This molecule also gave a half-inhibitory concentration (IC50) in data set [1] of 34.7 ± 12.5 nM.

In general, IC50 refers to the midpoint of a concentration-inhibition curve. Read a low IC50 as higher potency. A word on the CC50: it is the concentration giving 50% cytotoxicity. The low end stands for greater toxicity to the cells, the high end for lower toxicity to the cells. In general, melting point refers to the temperature of the solid-liquid transition.
